Laboratory results as given in ChEMBL document CHEMBL4828715, “Discovery, Structure-Activity Relationships, and In Vivo Evaluation of Novel Aryl Amides as Brain Penetrant Adaptor Protein 2-Associated Kinase 1 (AAK1) Inhibitors for the Treatment of Neuropathic Pain” (J Med Chem, 2021).
Activity calls are given as the source filed them. No cut-off for these calls is given here.

Experiments:
[1] = Permeability of the compound across basolateral to apical membrane in human Caco-2 cells incubated for 2 hrs by LC-MS/MS analysis; assay type: ADME, cell-based; details: Caco-2, read-out: permeability
[2] = Permeability of the compound across apical to basolateral membrane in human Caco-2 cells incubated for 2 hrs by LC-MS/MS analysis
[3] = biological target: T1, AP2-associated protein kinase 1 (Homo sapiens, UniProt Q2M2I8); assay: Inhibition of recombinant GST-Xa-tagged human AAK1 (30 to 330 residues) using 5-FAM-labelled Alla-KEEQSQITSQVTGQIGWR-NH2 peptide as substrate incubated for 3 hrs in presence of ATP by electrophoretic analysis
[4] = Metabolic stability in human liver microsomes assessed as parent compound remaining at 0.5 uM incubated for 10 mins in presence of NADPH by LC-MS/MS analysis; assay type: ADME, Microsome; details: read-out: Stability
[5] = Metabolic stability in rat liver microsomes assessed as parent compound remaining at 0.5 uM incubated for 10 mins in presence of NADPH by LC-MS/MS analysis; assay type: ADME, Microsome; details: read-out: Stability
[6] = Metabolic stability in mouse liver microsomes assessed as parent compound remaining at 0.5 uM incubated for 10 mins in presence of NADPH by LC-MS/MS analysis; assay type: ADME, Microsome; details: read-out: Stability
[7] = biological target: T1, AP2-associated protein kinase 1; assay: Inhibition of human AAK1 expressed in HEK293 cells assessed as suppression of AP2 phosphorylation measured after 3 hrs by Western blot analysis; assay type: cell-based
[8] = Permeability of the compound at pH 5.5 incubated for 4 hrs by PAMPA-based UV spectrophotometry; assay type: ADME; details: read-out: permeability
[9] = Permeability of the compound at pH 7.4 incubated for 4 hrs by PAMPA-based UV spectrophotometry; assay type: ADME; details: PAMPA, pH 7.4, read-out: permeability
[10] = Protein binding in human plasma assessed as unbound fraction at 10 uM measured after 5 hrs by equilibrium dialysis method
[11] = Protein binding in rat plasma assessed as unbound fraction at 10 uM measured after 5 hrs by equilibrium dialysis method
[12] = Protein binding in mouse plasma assessed as unbound fraction at 10 uM measured after 5 hrs by equilibrium dialysis method
[13] = Drug concentration in C57BL6 mouse plasma at 30 mg/kg, sc measured after 2 hrs by LC-MS/MS analysis; assay type: ADME, organism-based
[14] = Drug concentration in C57BL6 mouse brain at 30 mg/kg, sc measured after 2 hrs by LC-MS/MS analysis; assay type: ADME, organism-based; details: read-out: Ct
[15] = Ratio of drug concentration in brain to plasma in C57BL6 mouse at […], sc; assay type: ADME; details: read-out: BPR
[16] = biological target: T1, AP2-associated protein kinase 1; assay: Inhibition of AAK1 (unknown origin)
[17] = Efflux ratio of permeability across basolateral to apical membrane over apical to basolateral membrane in human Caco-2 cells
Rattus norvegicus [18] = assay: Antinociceptive activity in Sprague-Dawley rat model of chronic constriction injury-induced neuropathic pain assessed as reduction in paw withdrawal latency at 100 mg/kg, po by Von Frey test; assay type: functional, organism-based
Rattus norvegicus [19] = assay: Antinociceptive activity in Sprague-Dawley rat model of chronic constriction injury-induced neuropathic pain assessed as reduction in thermal hyperalgesia 100 mg/kg, po by Von Frey test relative to control; assay type: functional; design: scale not given: the % may be the effect or the level left
Rattus norvegicus [20] = assay: Antinociceptive activity in Sprague-Dawley rat model of chronic constriction injury-induced neuropathic pain assessed as reduction in mechanical hyperalgesia 100 mg/kg, po by Von Frey test relative to control; assay type: functional; design: scale not given: the % may be the effect or the level left
Rattus norvegicus [21] = assay: Reversal of chronic constriction injury-induced cold allodynia in Sprague-Dawley rat model of neuropathic pain at 100 mg/kg, po measured up to 180 mins relative to control; assay type: functional; details: time min <=180
Rattus norvegicus [22] = assay: Reversal of chronic constriction injury-induced mechanical allodynia in Sprague-Dawley rat model of neuropathic pain at 100 mg/kg, sc measured up to 180 mins relative to control; assay type: functional; details: time min <=180
[23] = Induction of motor coordination impairment in Sprague-Dawley rat at 100 mg/kg, po measured up to 180 mins by rotarod test; assay type: organism-based; details: in vivo, 3 h
[24] = Toxicity in Sprague-Dawley rat assessed as drowsiness at 100 mg/kg, po; assay type: organism-based; details: in vivo
[25] = Toxicity in Sprague-Dawley rat assessed as dizziness at 100 mg/kg, po; assay type: organism-based; details: in vivo
[26] = Toxicity in Sprague-Dawley rat assessed as unsteadiness at 100 mg/kg, po; assay type: organism-based; details: in vivo

T1 sequence (Q2M2I8 whole entry, the tested form may be a part): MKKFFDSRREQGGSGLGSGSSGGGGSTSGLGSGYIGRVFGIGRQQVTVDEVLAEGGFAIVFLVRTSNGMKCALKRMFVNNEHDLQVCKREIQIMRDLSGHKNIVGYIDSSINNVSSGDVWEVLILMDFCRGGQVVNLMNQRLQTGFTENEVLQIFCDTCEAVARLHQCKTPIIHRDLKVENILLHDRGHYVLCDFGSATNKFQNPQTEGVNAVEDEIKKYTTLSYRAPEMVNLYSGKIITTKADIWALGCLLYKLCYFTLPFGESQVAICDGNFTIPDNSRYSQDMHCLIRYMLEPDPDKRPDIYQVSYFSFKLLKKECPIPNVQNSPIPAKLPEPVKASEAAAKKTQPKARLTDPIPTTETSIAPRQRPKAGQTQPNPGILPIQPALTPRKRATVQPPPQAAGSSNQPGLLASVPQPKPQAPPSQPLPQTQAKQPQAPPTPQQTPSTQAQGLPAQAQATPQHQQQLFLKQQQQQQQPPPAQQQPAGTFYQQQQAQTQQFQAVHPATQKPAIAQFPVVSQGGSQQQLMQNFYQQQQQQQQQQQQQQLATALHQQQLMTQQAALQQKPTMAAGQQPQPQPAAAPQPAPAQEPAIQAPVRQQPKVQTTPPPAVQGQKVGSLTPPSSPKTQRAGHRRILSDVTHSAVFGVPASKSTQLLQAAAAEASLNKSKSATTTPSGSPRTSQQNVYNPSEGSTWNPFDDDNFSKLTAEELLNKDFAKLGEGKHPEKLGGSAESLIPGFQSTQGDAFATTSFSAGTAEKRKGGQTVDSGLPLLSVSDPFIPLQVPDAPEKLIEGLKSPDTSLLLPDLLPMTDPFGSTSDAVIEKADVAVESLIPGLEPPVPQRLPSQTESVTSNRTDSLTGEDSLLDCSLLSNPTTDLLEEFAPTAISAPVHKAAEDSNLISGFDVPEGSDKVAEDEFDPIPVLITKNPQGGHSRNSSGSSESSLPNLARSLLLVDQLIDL

Compound	Papp B→A at 2 h [1]	Papp A→B at 2 h [2]	IC50 [3]	remaining at 10 min, 0.5 µM [4]	remaining at 10 min, 0.5 µM [5]	remaining at 10 min, 0.5 µM [6]	IC50 [7]	Papp at 4 h [8]	Papp at 4 h [9]	fraction unbound at 5 h, 10 µM [10]	fraction unbound at 5 h, 10 µM [11]	fraction unbound at 5 h, 10 µM [12]	concentration at 2 h [13]	concentration at 2 h [14]	Kp [15]	also measured
COc1cc(NC(=O)[C@H](N)CC(C)C)ccc1-c1cnco1	15.1 ×10⁻⁶ cm/s	13.7 ×10⁻⁶ cm/s	12 nM	89%	75%	64%	60 nM	56.9 ×10⁻⁶ cm/s	58.4 ×10⁻⁶ cm/s	0.063	0.023	0.086	7.3 µM	6.8 µM	1.17	
Cc1nccc2c1c(=O)n(C)c1cc(OC[C@@H](N)CC(C)C)c(C#N)cc21																IC50 [16]: 0.7 nM
COc1cc(NC(=O)[C@H](N)CC(C)C)ccc1-c1cn[nH]c1	14.9 ×10⁻⁶ cm/s	4 ×10⁻⁶ cm/s	15 nM	85%	74%	34%	190 nM			0.18	0.1	0.2	29.9 µM	5.7 µM	0.21	efflux ratio [17]: 3.3
COc1cc(NC(=O)[C@@H]2NCCC[C@@H]2C(C)C)ccc1-c1cnco1	11.9 ×10⁻⁶ cm/s	16.7 ×10⁻⁶ cm/s	10 nM	60%	42%	2%	105 nM	47.1 ×10⁻⁶ cm/s	43.5 ×10⁻⁶ cm/s	0.19	0.059	0.028				
NCC1(CC(=O)O)CCCCC1 [GABAPENTIN]																Activity (Rattus norvegicus [18]): Active; Activity (Rattus norvegicus [19]): 89%; Activity (Rattus norvegicus [20]): 32%; Activity (Rattus norvegicus [21]): 54%; Activity (Rattus norvegicus [22]): 34%; Activity [23]: Toxic; Activity [24]: Toxic; Activity [25]: Toxic; Activity [26]: Toxic
